Assay results: patent US12564581B2, “Pyrazole pharmaceutical composition” (Intervet Inc., priority 2019, dated 2026)

Tests used:
[1] = Solubility of the compound in surfactant solutions; assay type: physicochemical
Excerpt: To increase solubility of the compound and promote increase bioavailability, a number of surfactants were screened. The table below lists the solubilities of 1-[(3R,4S)-4-cyanotetrahydropyran-3-yl]-3-[(2-fluoro-6-methoxy-4-pyridyl)amino]pyrazole-4-carboxamide in the tested surfactant solutions.

cIL-31 induced pruritus = settings: with respect to placebo; similar magnitude to oclacitinib (Apoquel); from WO 2018/108969; cited from earlier work

solubility ([1]; 1% polysorbate (Tween 80) solution, aqueous with cosolvent or surfactant or cyclodextrin, 1% polysorbate (Tween 80)): 50.3 µg/mL
solubility ([1]; 1% sodium lauryl sulfate (SLS) solution, aqueous with cosolvent or surfactant or cyclodextrin, 1% sodium lauryl sulfate (SLS)): 195 µg/mL
solubility ([1]; 10% ELP solution, aqueous with cosolvent or surfactant or cyclodextrin, 10% ELP): 541 µg/mL
solubility ([1]; 10% P407 solution, aqueous with cosolvent or surfactant or cyclodextrin, 10% P407): 217 µg/mL
solubility ([1]; 10% Poloxamer 124 solution, aqueous with cosolvent or surfactant or cyclodextrin, 10% Poloxamer 124): 108 µg/mL
solubility ([1]; 10% Poloxamer 188 solution, aqueous with cosolvent or surfactant or cyclodextrin, 10% Poloxamer 188): 109 µg/mL
solubility ([1]; 10% hydrogenated castor oil (RH40) solution, aqueous with cosolvent or surfactant or cyclodextrin, 10% hydrogenated castor oil (RH40)): 489 µg/mL
solubility ([1]; 10% polyvinylpyrrolidone (PVP) solution, aqueous with cosolvent or surfactant or cyclodextrin, 10% polyvinylpyrrolidone (PVP)): 133 µg/mL
solubility ([1]; 30% HS15 solution, aqueous with cosolvent or surfactant or cyclodextrin, 30% HS15): 1420 µg/mL
solubility ([1]; Oleoyl macrogol-6 / polyoxyl-6 glycerides (Labrafil M1944CS), oil or lipid): 807 µg/mL
solubility ([1]; aqueous with cosolvent or surfactant or cyclodextrin, 1% D-a-Tocopheryl polyethylene glycol 1000 succinate (TPGS)): 99 µg/mL
solubility ([1]; aqueous with cosolvent or surfactant or cyclodextrin, 10% polyoxyethylated 12-hydroxystearic acid (Solutol HS 15)): 460 µg/mL
Water solubility (in words) ([1]; water): poorly water soluble
solubility ([1]; water): 8 µg/mL
SMILES: COc1cc(Nc2nn([C@H]3COCC[C@@H]3C#N)cc2C(N)=O)cc(F)n1 [compound of Formula (I), 1-[(3R,4S)-4-cyanotetrahydropyran-3-yl]-3-[(2-fluoro-6-methoxy-4-pyridyl)amino]pyrazole-4-carboxamide]
Suppression of pruritus (cIL-31 induced pruritus): significantly suppressed pruritus
